# In patent publication EP1180991B1, “GAMBOGIC ACID DERIVATIVES AS ACTIVATORS OF CASPASES AND INDUCERS OF APOPTOSIS” (Cytovia, Inc., priority 1999, dated 2000):
# How the values were obtained:
# T47D cells [1] = assay: Nuclear fragmentation, Syto16 DNA stain (Example 94); type: cell-based, human; conditions: 10 µM, 24 h (Fig. 2B)
# Experimental: T47D cells were grown and plated as described in Example 90. The cells were treated with 10 µM of gambogic acid and the plate was incubated for up to 24 h at 37°C in a 5% CO2-95% humidity incubator. At 24 h, the cells were incubated with a live cell nucleic acid stain, Syto16 (Molecular Probes) which stains DNA. After 2 washes with PBS, cells were examined under a fluorescence microscope. […] Nuclear fragmentation is a clear indicator of cellular apoptosis.
# HL-60 = assay: Inhibition of cell proliferation (GI50) and cell death (LC50), CellTiter 96 (Example 91); type: cell-based; conditions: Homo sapiens, HL-60, 48 h
# Experimental: (§1) T-47D, ZR-75-1, PC-3, human prostate cancer cell line DU-145, human non-small cell lung cancer cell line A-549, human small cell lung cancer cell line SHP-77, HL-60 and MRC-5 cells were grown and harvested as in Example 90. […] The samples were mixed by agitation and incubated at 37° C for 2-4 h in a 5% CO2-95% humidity incubator. […] This determines the possible background absorbance of the test compounds. No absorbance for gambogic acid or its analogs or derivatives was found at 490 nm. After the 2-4 h incubation, the samples were read for absorbance as above (ATest).
# (§2) The samples were mixed by agitation and incubated at 37° C for 2-4 h in a 5% CO2-95% humidity incubator. Absorbance was read as above, (AT=0) defining absorbance for initial cell number used as baseline in GI50 determinations and (Amin) defining absorbance for media alone used as baseline in LC50 determinations.
# (§3) GI50 (dose for50%inhibition of cell proliferation) 50 = 100 x [(ATest-AT = 0)/(Amax-AT = 0)] [formula] LC50 (dose for50%cell death) 50 = 100 x [(ATest-Amin)/(AT = 0-Amin)] [formula]
# DU-145 = assay: as above; type: cell-based; conditions: Homo sapiens, DU-145, 48 h
# Experimental: as §1, §2, §3
# ZR-75-1 = assay: as above; type: cell-based; conditions: Homo sapiens, ZR-75-1, 48 h
# Experimental: as §1, §2, §3
# SHP-77 [2] = assay: as above; type: cell-based; conditions: Homo sapiens, SHP77, SHP-77, 48 h
# Experimental: as §1, §2, §3
# PC-3 [3] = assay: as above; type: cell-based; conditions: Homo sapiens, PC-3, 48 h
# Experimental: as §1, §2, §3
# T-47D = assay: as above; type: cell-based; conditions: Homo sapiens, T47D, T-47D, 48 h
# Experimental: as §1, §2, §3
# A-549 [4] = assay: as above; type: cell-based; conditions: Homo sapiens, A549, A-549, 48 h
# Experimental: as §1, §2, §3
# T47D cells [5] = assay: Dose response of caspase activation, cancer cells versus normal fibroblasts (Example 96); type: cell-based, human; conditions: T47D versus MRC-5; 2 h dose response (Fig. 4)
# Experimental: T47D cells and MRC-5 cells were maintained and harvested as described in Example 90. […] To determine the dose response of gambogic acid for inducing caspase activity, 5 µl of 20 µM gambogic acid in RPMI media was added to wells in triplicates. Two-fold serial dilutions were made for the lower concentrations. After incubation for 2 h, the samples were removed from the 5% CO2-95% humidity incubator and caspase activity was determined by addition of a fluorogenic substrate as described in Example 90.
# KB = conditions: Lin et al. 1993; cited from earlier work
# ZR-75 = assay: Caspase activity with and without caspase inhibitor (Example 97); type: cell-based, human; parameters: key to Inhibition of caspase activity by Inhibitor: The caspase activity detected was inhibited by the caspase inhibitor (+)
# Experimental: (§4) T47D, ZR-75, PC3, SHP-77 and A-549 cells were maintained and harvested as described in Example 90. Cells were added to 96-well plates as described in Example 90. The cells were treated with 10 µM gambogic acid, in the presence and in the absence of 10 µM caspase inhibitor cbz-Val-Asp-fink (Cytovia, Inc.; WO99/18781). The plate was incubated up to 24 h at 37° C in a 5% CO2-95% humidity incubator. Caspase activity was determined by addition of a fluorogenic substrate as described in Example 90.
# (§5) Gambogic acid induced caspase activity in a ratio of greater than 2.5 (+) above untreated cell levels in all the tested cancer cell lines (Table IV). The caspase activity detected was inhibited by the caspase inhibitor (+), confirming that the fluorescent signal was due to caspase activity. Table IV. Gambogic Acid as Caspase Inducers in Solid Tumor Cells
# SHP-77 [6] = assay: as above; type: cell-based, human; parameters: key to Inhibition of caspase activity by Inhibitor: The caspase activity detected was inhibited by the caspase inhibitor (+)
# Experimental: as §4, §5
# PC-3 [7] = assay: as above; type: cell-based, human; parameters: key to Inhibition of caspase activity by Inhibitor: The caspase activity detected was inhibited by the caspase inhibitor (+)
# Experimental: as §4, §5
# T47D = assay: as above; type: cell-based, human; parameters: key to Inhibition of caspase activity by Inhibitor: The caspase activity detected was inhibited by the caspase inhibitor (+)
# Experimental: as §4, §5
# A-549 [8] = assay: as above; type: cell-based, human; parameters: key to Inhibition of caspase activity by Inhibitor: The caspase activity detected was inhibited by the caspase inhibitor (+)
# Experimental: as §4, §5
# [9] = dose for 50% cell death, read-out: LC50 (the source's name)
# [10] = dose for 50% inhibition of cell proliferation, read-out: GI50
# [11] = 10 µM plus 10 µM caspase inhibitor cbz-Val-Asp-fink
# [12] = Homo sapiens, 10 µM, up to 24 h
structure (smiles),measurement,setting,value
"CC(C)=CCC[C@]1(C)C=Cc2c(O)c3c(c(CC=C(C)C)c2O1)O[C@]12C(=C[C@@H]4C[C@H]1C(C)(C)O[C@@]2(C/C=C(/C)C(=O)O)C4=O)C3=O [Example 1, Gambogic Acid]",nuclear fragmentation,T47D cells [1],condensed and fragmented nuclei in a large population of the cells
same,CC50,HL-60; [9],700 nM
same,GI50,HL-60; [10],500 nM
same,CC50,DU-145; [9],800 nM
same,GI50,DU-145; [10],500 nM
same,CC50,ZR-75-1; [9],500 nM
same,GI50,ZR-75-1; [10],400 nM
same,CC50,SHP-77 [2]; [9],500 nM
same,GI50,SHP-77 [2]; [10],500 nM
same,CC50,PC-3 [3]; [9],700 nM
same,GI50,PC-3 [3]; [10],500 nM
same,CC50,T-47D; [9],450 nM
same,GI50,T-47D; [10],65 nM
same,CC50,A-549 [4]; [9],5000 nM
same,GI50,A-549 [4]; [10],800 nM
same,sensitivity to induction of caspase activity,T47D cells [5],more sensitive to induction of caspase activity than a normal fibroblast cell line MRC-5
same,cytotoxicity,KB,cytotoxic
same,Inhibition of caspase activity by Inhibitor,ZR-75; [11],+
same,fold induction at 10 µM,"ZR-75; Homo sapiens, ZR75, 10 µM, up to 24 h",> 2.5
same,Inhibition of caspase activity by Inhibitor,SHP-77 [6]; [11],+
same,fold induction at 10 µM,"SHP-77 [6]; Homo sapiens, SHP77, 10 µM, up to 24 h",> 2.5
same,Inhibition of caspase activity by Inhibitor,PC-3 [7]; [11],+
same,fold induction at 10 µM,PC-3 [7]; [12],> 2.5
same,Inhibition of caspase activity by Inhibitor,T47D; [11],+
same,fold induction at 10 µM,T47D; [12],> 2.5
same,Inhibition of caspase activity by Inhibitor,A-549 [8]; [11],+
same,fold induction at 10 µM,"A-549 [8]; Homo sapiens, A549, 10 µM, up to 24 h",> 2.5
